The values below come from article PMC11239830, “Synthetic macrolides overcoming MLSBK-resistant pathogens” (Cell Discovery, 2024).

The structures appear in SMILES notation. In brackets after ≈: the same amount, converted by molar mass. Read-outs that look alike come from different tables or passages of the source.

What all share (assay): MIC, broth microdilution
On the technique in general: Dilution methods test growth across graded concentrations, often in twofold steps.

One assay relates to H. influenzae. It counts as cell-based, Haemophilus influenzae. As for the experimental part: (§1) MICs were determined by the microdilution method according to the Clinical and Laboratory Standards Institute guidelines. […] Finally, the 96-well plates were incubated at 37 °C for 16–20 h to observe and record the results. […] The assay for MICs was replicated at least three times.

The test system of a further assay is S. pneumoniae. The format is cell-based, Streptococcus pneumoniae. The procedure:
as §1

In the next assay the test system is S. pyogenes. It counts as cell-based, Streptococcus pyogenes. Conditions: S. pyogenes 12-206, c-ermTR. The procedure: as §1
A further assay has as its system S. aureus. It counts as cell-based, Staphylococcus aureus. As for the experimental part:
as §1

For the molecule `CC[C@H]1OC(=O)[C@H](C)[C@@H](OC(=O)NCCCCCCC#Cc2ccc3c(=O)c(C(=O)O)cn(C4CC4)c3c2)[C@H](C)[C@@H](O[C@@H]2O[C@H](C)C[C@H](N(C)C)[C@H]2O)[C@](C)(O)C[C@@H](C)CN(C)[C@H](C)[C@H]2OC(=O)O[C@@]21C` [111c], the MIC with H. influenzae (H. influenzae ATCC49247, Azi-S) was 8 µg/mL (≈ 8.04 µM); in the assay on S. pneumoniae (S. pneumoniae 07P390, c-ermB), 0.5 µg/mL (≈ 0.502 µM); against S. pneumoniae (S. pneumoniae ATCC49619, Ery-S), at most 0.008 µg/mL; in the assay on S. pneumoniae (S. pneumoniae PU09, mef), at most 0.008 µg/mL; against S. pyogenes, 2 µg/mL (≈ 2.01 µM); in the assay on S. aureus (S. aureus 15B196, c-ermB), 16 µg/mL (≈ 16.1 µM). The MIC against S. aureus (S. aureus PU32, i-ermA) was determined as 4 µg/mL (≈ 4.02 µM).

As for `CC[C@H]1OC(=O)[C@H](C)[C@@H](O[C@H]2C[C@@](C)(OC)[C@@H](O)[C@H](C)O2)[C@H](C)[C@@H](O[C@@H]2O[C@H](C)C[C@H](N(C)C)[C@H]2O)[C@](C)(O)C[C@@H](C)CN(C)[C@H](C)[C@@H](O)[C@]1(C)O` [azithromycin, reference compound], the MIC is 2 µg/mL (≈ 2.67 µM) in the assay on H. influenzae (Haemophilus influenzae, ATCC49247, H. influenzae ATCC49247, Azi-S, read-out: MIC); 0.25 µg/mL (≈ 0.334 µM) in the assay with S. pneumoniae (Streptococcus pneumoniae, ATCC49619, S. pneumoniae ATCC49619, Ery-S, read-out: MIC); above 256 µg/mL against S. pneumoniae (Streptococcus pneumoniae, S. pneumoniae 07P390, c-ermB); 8 µg/mL (≈ 10.7 µM) in the assay on S. pneumoniae (Streptococcus pneumoniae, S. pneumoniae PU09, mef, read-out: MIC); above 256 µg/mL in the assay with S. pyogenes (Streptococcus pyogenes, read-out: MIC); above 256 µg/mL in the assay on S. aureus (Staphylococcus aureus, S. aureus 15B196, c-ermB). Moreover, the MIC in the assay with S. aureus (Staphylococcus aureus, S. aureus PU32, i-ermA) was above 256 µg/mL.

Consider `CC[C@H]1OC(=O)[C@H](C)[C@@H](OC(=O)NCCCCCCC#Cc2ccc3c(c2)c(=O)c(C(=O)O)cn3C2CC2)[C@H](C)[C@@H](O[C@@H]2O[C@H](C)C[C@H](N(C)C)[C@H]2O)[C@](C)(O)C[C@@H](C)CN(C)[C@H](C)[C@H]2OC(=O)O[C@@]21C` [111a], for which the MIC with H. influenzae (H. influenzae ATCC49247, Azi-S) worked out at 16 µg/mL (≈ 16.1 µM); in the assay with S. pneumoniae (S. pneumoniae 07P390, c-ermB) it was 256 µg/mL (≈ 257 µM); against S. pneumoniae (S. pneumoniae ATCC49619, Ery-S), 0.5 µg/mL (≈ 0.502 µM); in the assay with S. pneumoniae (S. pneumoniae PU09, mef), 2 µg/mL (≈ 2.01 µM); with S. pyogenes, 128 µg/mL (≈ 129 µM); with S. aureus (S. aureus 15B196, c-ermB), 128 µg/mL (≈ 129 µM). In the assay on S. aureus (S. aureus PU32, i-ermA), this molecule displayed an MIC of 32 µg/mL (≈ 32.2 µM).

Take `CC[C@H]1OC(=O)[C@H](C)[C@@H](OC(=O)NCCCCCCCCCCc2ccc3c(c2)c(=O)c(C(N)=O)cn3C2CC2)[C@H](C)[C@@H](O[C@@H]2O[C@H](C)C[C@H](N(C)C)[C@H]2O)[C@](C)(OC)C[C@@H](C)C(=NOC)[C@H](C)[C@H]2OC(=O)O[C@@]21C` [64b]: the MIC is above 256 µg/mL against H. influenzae (H. influenzae ATCC49247, Azi-S); 16 µg/mL (≈ 15.2 µM) against S. pneumoniae (S. pneumoniae 07P390, c-ermB); 4 µg/mL (≈ 3.79 µM) with S. pneumoniae (S. pneumoniae ATCC49619, Ery-S); 8 µg/mL (≈ 7.59 µM) against S. pneumoniae (S. pneumoniae PU09, mef); 16 µg/mL (≈ 15.2 µM) against S. pyogenes; above 256 µg/mL in the assay on S. aureus (S. aureus 15B196, c-ermB). The same molecule had an MIC against S. aureus (S. aureus PU32, i-ermA) of 64 µg/mL (≈ 60.7 µM).

Take `CC[C@H]1OC(=O)[C@H](C)[C@@H](OC(=O)NCCOCCC#Cc2ccc3c(=O)c(C(=O)O)cn(C4CC4)c3c2)[C@H](C)[C@@H](O[C@@H]2O[C@H](C)C[C@H](N(C)C)[C@H]2O)[C@](C)(OC)C[C@@H](C)C(=NOC)[C@H](C)[C@H]2OC(=O)O[C@@]21C` [70c]: the MIC with H. influenzae (H. influenzae ATCC49247, Azi-S) was 32 µg/mL (≈ 31.6 µM); with S. pneumoniae (S. pneumoniae 07P390, c-ermB) it was 0.25 µg/mL (≈ 0.247 µM); with S. pneumoniae (S. pneumoniae ATCC49619, Ery-S), at most 0.008 µg/mL; in the assay on S. pneumoniae (S. pneumoniae PU09, mef) it was 0.06 µg/mL (≈ 0.0593 µM); with S. pyogenes it was 2 µg/mL (≈ 1.98 µM); with S. aureus (S. aureus 15B196, c-ermB), 128 µg/mL (≈ 127 µM). In addition, the MIC in the assay on S. aureus (S. aureus PU32, i-ermA) is 4 µg/mL (≈ 3.96 µM).
